Measured values published in patent US20260250277A1, “HYDRAZINO GROUP-CONTAINING COMPOUND” (CHIA TAI TIANQING PHARMACEUTICAL GROUP CO., LTD., priority 2022, published 2026).
Like-named read-outs stand apart in the source and are kept apart here.

Columns and labels:
ATM kinase = ATM kinase (Homo sapiens, UniProt Q13315); assay: Inhibitory activity against ATM kinase (p53 substrate, HTRF); format: biochemical
Method: (§1) ATM kinase solution (concentration: 25 ng/μL) was added to assay wells at 6 μL/well, and different compounds dissolved in DMSO were added to the assay wells separately using a nanoliter pipettor, such that the final concentrations of the compounds were 10000 nM to 2.44 nM. In this experiment, the wells were set in duplicate, and a control well was set. After incubation of the above system for 30 min at room temperature, ATP (100 μM) was mixed with p53 substrate (50 nM) at a ratio of 1:1, and the mixture was added at 4 μL/well. The resulting mixture was left to react at room temperature for 2 h, and then 5 μL of EDTA was added to terminate the reaction, followed by addition of 5 μL of detection antibodies, Mab Anti-phospho p53 and Mab Anti GST-d2 (manufacturer: perkinelmer). The mixture was incubated at room temperature for 1 h. The plate was read using a PerkinElmer Envision multifunctional microplate reader (excitation: 320 nm, emission: 620 nm/665 nm), and IC50 was calculated by four-parameter fitting.

[1] = target: ATR/ATPIP (ATR-interacting protein) kinase (Homo sapiens, UniProt Q13535); assay: Inhibitory activity against ATR kinase (p53 substrate, HTRF); format: biochemical
Method: as §1, with “ATR/ATPIP (ATR-interacting protein)” for “ATM”, “50” for “25”, “(5” for “(100”

[2] = target: DNA-PK (DNA-dependent protein kinase) (Homo sapiens, UniProt P78527); assay: Inhibitory activity against DNA-PK (p53 substrate, HTRF); format: biochemical
Method: as §1, with “DNA-PK” for “ATM”, “0.15” for “25”

[3] = tested on: CHK2 phosphorylation of NCI-H2228 cells; assay: Inhibitory activity against CHK2 phosphorylation of NCI-H2228 cells (p-CHK2 Thr68 AlphaLISA); format: cell-based; settings: Homo sapiens
Method: NCI-H2228 cells in a good growth state were collected, added to a centrifuge tube, adjusted to a cell density of 1.25×10^6 cells/mL, and seeded in a 384-well plate (8 μL/well). The cells were equilibrated in a cell incubator for 1.5 h, and then compounds were added using a nanoliter pipettor, such that the final concentrations of the compounds were 200 nM to 0.049 nM. In this experiment, the wells were set in duplicate, and a control well was set. After the mixture was further cultured for 1 h in the cell incubator, an assay was performed using a p-CHK2 (Thr68) assay kit (manufacturer: perkinelmer) and the Envision microplate reader AlphaLISA program. A four-parameter analysis was performed, a dose-response curve was fit, and IC50 was calculated.

[4] = In vivo pharmacokinetics (Table 4); settings: plasma; for MRT last: read-out: MRT(0-t); for Vd: read-out: Vz

Sequence of ATM kinase (Q13315 whole entry): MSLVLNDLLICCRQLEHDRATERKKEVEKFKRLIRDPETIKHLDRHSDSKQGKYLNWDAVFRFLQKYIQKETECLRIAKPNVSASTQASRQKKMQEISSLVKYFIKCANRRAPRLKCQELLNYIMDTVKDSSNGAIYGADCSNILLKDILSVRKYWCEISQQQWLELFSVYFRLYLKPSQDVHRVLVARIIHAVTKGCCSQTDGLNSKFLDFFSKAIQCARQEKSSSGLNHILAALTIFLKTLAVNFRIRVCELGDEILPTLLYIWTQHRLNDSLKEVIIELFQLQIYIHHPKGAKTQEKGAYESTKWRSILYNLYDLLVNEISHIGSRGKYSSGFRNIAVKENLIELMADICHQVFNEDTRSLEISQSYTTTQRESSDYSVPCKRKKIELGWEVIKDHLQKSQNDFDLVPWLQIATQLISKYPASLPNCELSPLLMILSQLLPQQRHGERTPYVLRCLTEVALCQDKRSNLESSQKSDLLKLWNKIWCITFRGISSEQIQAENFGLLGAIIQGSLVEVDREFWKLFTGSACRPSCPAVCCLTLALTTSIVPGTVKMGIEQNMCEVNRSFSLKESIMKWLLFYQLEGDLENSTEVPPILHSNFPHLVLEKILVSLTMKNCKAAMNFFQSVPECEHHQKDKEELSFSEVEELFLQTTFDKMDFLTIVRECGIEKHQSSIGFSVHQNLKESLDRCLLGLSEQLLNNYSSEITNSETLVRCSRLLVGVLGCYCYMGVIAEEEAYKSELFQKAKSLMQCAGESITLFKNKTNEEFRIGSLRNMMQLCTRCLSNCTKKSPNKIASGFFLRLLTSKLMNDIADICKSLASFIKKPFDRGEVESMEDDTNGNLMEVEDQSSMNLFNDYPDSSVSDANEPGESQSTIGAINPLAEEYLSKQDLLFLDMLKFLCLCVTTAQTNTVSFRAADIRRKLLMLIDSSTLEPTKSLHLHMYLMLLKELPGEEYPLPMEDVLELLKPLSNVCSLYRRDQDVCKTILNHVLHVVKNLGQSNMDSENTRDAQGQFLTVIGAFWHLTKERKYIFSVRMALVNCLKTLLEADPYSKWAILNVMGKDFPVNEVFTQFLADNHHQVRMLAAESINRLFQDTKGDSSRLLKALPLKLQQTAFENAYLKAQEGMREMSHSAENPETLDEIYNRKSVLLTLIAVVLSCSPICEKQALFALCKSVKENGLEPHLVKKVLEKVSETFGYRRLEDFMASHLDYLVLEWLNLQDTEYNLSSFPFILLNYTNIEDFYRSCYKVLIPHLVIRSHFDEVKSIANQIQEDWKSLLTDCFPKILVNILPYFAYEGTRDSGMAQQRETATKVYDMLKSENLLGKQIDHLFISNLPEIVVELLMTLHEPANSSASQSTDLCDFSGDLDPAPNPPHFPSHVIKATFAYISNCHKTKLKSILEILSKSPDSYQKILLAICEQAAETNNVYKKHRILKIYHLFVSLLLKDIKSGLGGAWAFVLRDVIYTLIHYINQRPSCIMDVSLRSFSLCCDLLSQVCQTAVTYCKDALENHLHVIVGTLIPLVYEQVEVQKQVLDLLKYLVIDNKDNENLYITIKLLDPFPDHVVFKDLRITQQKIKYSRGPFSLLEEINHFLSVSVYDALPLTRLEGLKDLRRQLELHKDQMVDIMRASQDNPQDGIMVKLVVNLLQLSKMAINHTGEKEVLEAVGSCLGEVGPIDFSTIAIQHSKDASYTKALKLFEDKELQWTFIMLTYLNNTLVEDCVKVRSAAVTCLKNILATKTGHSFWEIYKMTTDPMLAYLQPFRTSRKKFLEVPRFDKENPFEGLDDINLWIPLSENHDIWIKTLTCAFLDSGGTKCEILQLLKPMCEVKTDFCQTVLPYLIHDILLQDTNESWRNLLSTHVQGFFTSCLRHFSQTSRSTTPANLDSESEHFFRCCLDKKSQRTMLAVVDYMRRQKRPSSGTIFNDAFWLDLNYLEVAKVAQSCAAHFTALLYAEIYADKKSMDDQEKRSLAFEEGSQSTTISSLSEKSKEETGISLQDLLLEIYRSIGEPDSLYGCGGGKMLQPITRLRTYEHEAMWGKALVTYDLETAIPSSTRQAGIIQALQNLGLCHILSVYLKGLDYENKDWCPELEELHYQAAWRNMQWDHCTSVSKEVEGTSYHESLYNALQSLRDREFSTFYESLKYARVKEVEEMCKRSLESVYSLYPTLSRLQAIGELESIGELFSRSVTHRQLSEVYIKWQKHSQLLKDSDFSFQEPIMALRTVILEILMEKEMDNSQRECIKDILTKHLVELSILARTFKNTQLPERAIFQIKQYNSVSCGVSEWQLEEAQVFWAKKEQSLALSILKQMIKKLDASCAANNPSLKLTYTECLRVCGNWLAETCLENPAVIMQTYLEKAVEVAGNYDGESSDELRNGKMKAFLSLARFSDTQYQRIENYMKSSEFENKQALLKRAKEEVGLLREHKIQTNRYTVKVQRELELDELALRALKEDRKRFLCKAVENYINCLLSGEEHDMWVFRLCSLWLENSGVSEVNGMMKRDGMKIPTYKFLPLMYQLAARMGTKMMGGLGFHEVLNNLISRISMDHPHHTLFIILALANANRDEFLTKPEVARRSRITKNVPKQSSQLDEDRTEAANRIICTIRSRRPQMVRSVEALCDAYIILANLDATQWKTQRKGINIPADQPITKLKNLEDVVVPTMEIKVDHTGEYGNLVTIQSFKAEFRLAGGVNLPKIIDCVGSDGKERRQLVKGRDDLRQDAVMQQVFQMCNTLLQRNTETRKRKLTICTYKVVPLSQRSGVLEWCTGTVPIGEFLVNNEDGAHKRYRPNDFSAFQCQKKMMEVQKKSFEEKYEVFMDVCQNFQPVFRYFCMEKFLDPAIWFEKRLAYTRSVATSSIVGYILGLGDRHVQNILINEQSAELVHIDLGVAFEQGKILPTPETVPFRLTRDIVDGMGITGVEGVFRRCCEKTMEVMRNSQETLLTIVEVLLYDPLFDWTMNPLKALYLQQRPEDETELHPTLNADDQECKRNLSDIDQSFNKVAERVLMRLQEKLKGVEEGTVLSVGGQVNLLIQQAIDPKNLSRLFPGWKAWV

Structure (SMILES) | IC50 (ATM kinase) | IC50 [1] | IC50 [2] | IC50 [3] | AUC(0-inf) ([4]; iv, 1 mg/kg) | AUC(0-t) ([4]; iv, 1 mg/kg) | half-life ([4]; iv, 1 mg/kg) | MRT last ([4]; iv, 1 mg/kg) | Vd ([4]; iv, 1 mg/kg) | AUC(0-inf) ([4]; po, IG, 10 mg/kg) | AUC(0-t) ([4]; po, IG, 10 mg/kg) | Cmax ([4]; po, IG, 10 mg/kg) | Tmax ([4]; po, IG, 10 mg/kg) | half-life ([4]; po, IG, 10 mg/kg) | MRT last ([4]; po, IG, 10 mg/kg)
Nn1c(=O)n(C2CC2)c2c3cc(-c4ccc(OCCCN5CCCC5)nc4)c(F)cc3ncc21 [Example 19] | < 50 nM | > 1000 nM | > 1000 nM | < 50 nM | 474 ng·h/mL | 451 ng·h/mL | 2.05 h | 1.84 h | 4.82 L/kg | 4000 ng·h/mL | 3980 ng·h/mL | 485 ng/mL | 4 h | 3.07 h | 4.72 h
CC(C)n1c(=O)n(N)c2cnc3cc(F)c(-c4ccc(OCCCN5CCCCC5)nc4)cc3c21 [Example 2] | < 50 nM | 821 nM | > 1000 nM | < 50 nM | 539 ng·h/mL | 521 ng·h/mL | 1.7 h | 2.11 h | 4.55 L/kg | 4270 ng·h/mL | 4150 ng·h/mL | 521 ng/mL | 0.5 h | 4.59 h | 6.1 h
Nn1c(=O)n(C2CC2)c2c3cc(-c4ccc(OCCCN5CCCCC5)nc4)c(F)cc3ncc21 [Example 18] | < 50 nM | > 1000 nM | > 1000 nM | < 50 nM | 624 ng·h/mL | 587 ng·h/mL | 2.17 h | 1.89 h | 3.9 L/kg | 4500 ng·h/mL | 4460 ng·h/mL | 506 ng/mL | 4 h | 3.51 h | 4.99 h
CC(C)n1c(=O)n(N)c2cnc3cc(F)c(-c4ccc(OCCCN5CCCC5)nc4)cc3c21 [Example 3] | < 50 nM | > 1000 nM | > 1000 nM | < 50 nM | 460 ng·h/mL | 445 ng·h/mL | 1.74 h | 2.1 h | 5.45 L/kg | 4330 ng·h/mL | 4250 ng·h/mL | 495 ng/mL | 1 h | 4.01 h | 6.05 h
